The results in this text go back to ChEMBL document CHEMBL6182889, “Discovery of the first-in-class DOT1L PROTAC degrader” (Eur J Med Chem, 2025).

Each structure is given as a SMILES string. Activity calls are given as the source filed them. The rule behind the calls is not given here.

For series [1], the target named is T1, von Hippel-Lindau disease tumor suppressor/Histone-lysine N-methyltransferase, H3 lysine-79 specific (Homo sapiens, UniProt Q8TEK3+P40337). Nature of the series: PROTAC activity at VHL/DOT1L in mixed-lineage leukemia rearranged (MLL-r) human THP-1 cells assessed as induction of DOTIL degradation by measuring fold change in H3K79Me2 level at 3 uM incubated for 1 hr by western blot analysis relative to control. The class given is cell-based. For orientation: Immunoblotting shows a protein as a band on a membrane.
T1 sequence (P40337 whole entry, looked up): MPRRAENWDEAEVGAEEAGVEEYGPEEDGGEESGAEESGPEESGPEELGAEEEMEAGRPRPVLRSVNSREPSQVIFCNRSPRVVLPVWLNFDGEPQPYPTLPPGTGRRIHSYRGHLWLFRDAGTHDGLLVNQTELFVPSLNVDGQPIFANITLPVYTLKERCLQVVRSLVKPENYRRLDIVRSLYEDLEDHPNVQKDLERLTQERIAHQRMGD
T1 sequence (Q8TEK3 whole entry, looked up): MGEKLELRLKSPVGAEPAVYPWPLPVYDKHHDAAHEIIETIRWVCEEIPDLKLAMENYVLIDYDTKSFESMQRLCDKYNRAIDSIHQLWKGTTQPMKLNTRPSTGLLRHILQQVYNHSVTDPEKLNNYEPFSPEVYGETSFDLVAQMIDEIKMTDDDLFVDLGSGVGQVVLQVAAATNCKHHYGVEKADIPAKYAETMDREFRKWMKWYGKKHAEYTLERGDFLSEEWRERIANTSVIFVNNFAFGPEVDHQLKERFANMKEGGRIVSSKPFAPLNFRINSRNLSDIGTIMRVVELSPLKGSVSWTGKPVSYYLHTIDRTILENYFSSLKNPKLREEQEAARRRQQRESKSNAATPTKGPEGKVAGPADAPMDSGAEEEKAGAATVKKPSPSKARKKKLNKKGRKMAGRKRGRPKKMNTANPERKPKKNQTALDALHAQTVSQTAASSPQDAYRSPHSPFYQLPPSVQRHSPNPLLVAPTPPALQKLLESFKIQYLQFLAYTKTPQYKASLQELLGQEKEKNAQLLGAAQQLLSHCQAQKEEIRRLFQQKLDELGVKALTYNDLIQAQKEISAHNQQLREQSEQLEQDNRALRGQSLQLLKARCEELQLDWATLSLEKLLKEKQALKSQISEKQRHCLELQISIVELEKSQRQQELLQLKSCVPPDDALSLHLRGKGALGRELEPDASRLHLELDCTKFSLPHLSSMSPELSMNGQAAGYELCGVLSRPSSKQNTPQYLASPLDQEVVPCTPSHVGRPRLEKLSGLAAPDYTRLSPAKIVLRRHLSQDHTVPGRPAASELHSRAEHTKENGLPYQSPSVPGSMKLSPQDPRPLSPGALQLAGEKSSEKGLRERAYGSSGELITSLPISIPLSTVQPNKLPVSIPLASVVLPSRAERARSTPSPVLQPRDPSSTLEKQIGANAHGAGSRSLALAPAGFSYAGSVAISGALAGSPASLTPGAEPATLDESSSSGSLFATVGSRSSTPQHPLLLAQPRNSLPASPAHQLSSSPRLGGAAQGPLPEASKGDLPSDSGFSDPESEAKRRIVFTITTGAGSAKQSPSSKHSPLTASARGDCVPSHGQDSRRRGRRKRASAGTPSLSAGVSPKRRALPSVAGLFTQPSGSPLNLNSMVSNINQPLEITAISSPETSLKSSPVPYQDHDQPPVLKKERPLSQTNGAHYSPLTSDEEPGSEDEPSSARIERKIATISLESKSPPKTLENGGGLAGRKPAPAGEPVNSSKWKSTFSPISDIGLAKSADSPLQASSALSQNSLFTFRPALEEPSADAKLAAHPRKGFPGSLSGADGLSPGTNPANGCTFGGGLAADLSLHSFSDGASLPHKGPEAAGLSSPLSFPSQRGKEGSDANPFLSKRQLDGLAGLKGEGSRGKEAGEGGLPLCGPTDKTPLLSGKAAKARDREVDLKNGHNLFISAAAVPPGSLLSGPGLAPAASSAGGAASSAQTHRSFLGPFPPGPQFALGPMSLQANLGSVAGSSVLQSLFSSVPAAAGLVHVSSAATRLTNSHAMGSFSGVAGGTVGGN

The target in series [2] is T1, von Hippel-Lindau disease tumor suppressor/Histone-lysine N-methyltransferase, H3 lysine-79 specific. Nature of the series: PROTAC activity at VHL/DOT1L in mixed-lineage leukemia rearranged (MLL-r) human THP-1 cells assessed as induction of DOTIL degradation by measuring fold change in H3K79Me2 level at 3 uM incubated for 24 hrs by western blot analysis relative to control. In kind it is cell-based.

Series [3] shares this target. Nature of the series: PROTAC activity at VHL/DOT1L in mixed-lineage leukemia rearranged (MLL-r) human MV4-11 cells assessed as induction of DOTIL degradation by measuring fold change in DOT1L protein level at 3 uM incubated for 1 hr by western blot analysis relative to control. In kind it is cell-based.
The target is the same in series [4]. In words: PROTAC activity at VHL/DOT1L in mixed-lineage leukemia rearranged (MLL-r) human MV4-11 cells assessed as induction of DOTIL degradation by measuring fold change in DOT1L protein level at 3 uM incubated for 4 hrs by western blot analysis relative to control. In kind it is cell-based.
The target is the same in series [5]. In words: PROTAC activity at VHL/DOT1L in mixed-lineage leukemia rearranged (MLL-r) human MV4-11 cells assessed as induction of DOTIL degradation by measuring fold change in H3K79Me2 level at 3 uM incubated for 2 hrs by western blot analysis relative to control. In kind it is cell-based.
Series [6] has the same target. In words: PROTAC activity at VHL/DOT1L in mixed-lineage leukemia rearranged (MLL-r) human THP-1 cells assessed as induction of DOT1L degradation at 3 uM co-incubated with VHL ligand for 24 hrs by western blot analysis. The class given is cell-based.
Series [7] addresses Histone-lysine N-methyltransferase 2A (Homo sapiens) (UniProt Q03164). In words: Inhibition of human MLL1 using nucleosomes and SAM as substrate at 10 uM by radiometric Hotspot assay.
The subject of the next series is MOLM-13. Nature of the series: Antiproliferative activity against mixed-lineage leukemia rearranged (MLL-r) human MOLM-13 cells assessed as inhibition of cell growth incubated for 7 days by CCK-8 assay. In kind it is functional, cell-based. The settings on record: time 7.0 day. (In general: Tetrazolium assays rely on reduction of a dye to a coloured formazan, in cell work by metabolically active cells.)

The test system of a further series is PNT2. In words: Cytotoxicity against human PNT2 cells assessed as inhibition of cell growth incubated for 7 days by CCK-8 assay. In kind it is toxicity, cell-based. The settings on record: pnt2, 168 h, time 7 day.

In the case of `Cc1ncsc1-c1ccc([C@H](CC(=O)NCCCCCCNC(=O)COc2nc(N)nc(Nc3cc(S(N)(=O)=O)ccc3N[C@@H](c3cccc4c3OC(F)(F)O4)c3ncccc3Cl)n2)NC(=O)[C@@H]2C[C@@H](O)CN2C(=O)[C@@H](NC(=O)C2(F)CC2)C(C)(C)C)cc1`, the fold change (FC) was found to be 0.99 in series [1]; 0.29 in series [2]; 1.26 in [3]; 0.27 in series [4]; 0.41 in series [5]. The result in series [6] was inactive. Further, in series [7], the inhibition entry is “inactive”. The values for the Activity entry with MOLM-13 and in the series with PNT2 were “Active; Reduced Potency In Molm-13 Cells Relative To Mv4-11 Cells Observed” and “Non-toxic”, respectively.
